From patent US20140329797A1, “SUBSTITUTED OXADIAZOLYL PYRIDINONES AND OXADIAZOLYL PYRIDAZINONES AS HIF INHIBITORS” (Bayer Intellectual Property GmbH, priority 2011, published 2014)

What follows are molecules tested on HCT 116 cells transfected with a luciferase reporter under the control of an HIF-responsive sequence (assay: HIF-luciferase assay). Details: Homo sapiens; HCT 116 HIF-luciferase reporter cells, hypoxia chamber (1% O2), 24 h; in some cases means of up to four individual determinations.
Type: cell-based
Description: B-1. HIF-Luciferase Assay
HCT 116 cells were transfected in a stable manner with a plasmid which contained a luciferase reporter under the control of an HIF-responsive sequence. These cells were sown in microtitre plates [20000 cells/cavity in RPMI 1640 medium with 10% foetal calf serum (FCS) and 100 μg/ml of hygromycin]. Incubation was carried out overnight under standard conditions (5% CO2, 21% O2, 37° C., moistened). The following morning the cells were incubated with various concentrations of the test substances (0-10 μmol/l) in a hypoxia chamber (1% O2). After 24 h, Bright Glo reagent (Promega, Wisconsin, USA) was added in accordance with the manufacturer's instructions, and after 5 min the luminescence was measured. Cells which were incubated under normoxia served as background controls.

Structure (SMILES)	IC50 [nM]
Nc1ccc(Cn2cc(-c3nc(-c4ccc(OC(F)(F)F)cc4)no3)ccc2=O)cc1 [Example 7, 1-(4-Aminobenzyl)-5-{3-[4-(trifluoromethoxy)phenyl]-1,2,4-oxadiazol-5-yl}pyridin-2(1H)-one]	20
CC(C)(c1ccc(-c2noc(-c3ccc(=O)n(Cc4ccnc(N5CCN(C6CC6)CC5)c4)c3)n2)cc1)C(F)(F)F [Example 53, 1-{[2-(4-Cyclopropylpiperazin-1-yl)pyridin-4-yl]methyl}-5-{3-[4-(1,1,1-trifluoro-2-methylpropan-2-yl)phenyl]-1,2,4-oxadiazol-5-yl}pyridin-2(1H)-one]	4
CC(C)(c1ccc(-c2noc(-c3ccc(=O)n(Cc4cccc(C(=O)N5CCN(C6CC6)CC5)c4)c3)n2)cc1)C(F)(F)F [Example 39, 1-{3-[(4-Cyclopropylpiperazin-1-yl)carbonyl]benzyl}-5-{3-[4-(1,1,1-trifluoro-2-methylpropan-2-yl)phenyl]-1,2,4-oxadiazol-5-yl}pyridin-2(1H)-one]	5
O=C(c1cccc(Cn2cc(-c3nc(-c4ccc(OC(F)(F)F)cc4)no3)ccc2=O)c1)N1CCCO1 [Example 30, 1-[3-(1,2-Oxazolidin-2-ylcarbonyl)benzyl]-5-{3-[4-(trifluoromethoxy)phenyl]-1,2,4-oxadiazol-5-yl}pyridin-2(1H)-one]	2
O=c1ccc(-c2nc(-c3ccc(OC(F)(F)F)cc3)no2)cn1Cc1cccc(C2(CO)CC2)c1 [Example 43, 1-{3-[1-(Hydroxymethyl)cyclopropyl]benzyl}-5-{3-[4-(trifluoromethoxy)phenyl]-1,2,4-oxadiazol-5-yl}pyridin-2(1H)-one]	10
CC(=O)N1CCN(c2cc(Cn3cc(-c4nc(-c5ccc(SC(F)(F)F)cc5)no4)ccc3=O)ccn2)CC1 [Example 55, 1-{[2-(4-Acetylpiperazin-1-yl)pyridin-4-yl]methyl}-5-(3-{4-[(trifluoromethyl)sulphanyl]phenyl}-1,2,4-oxadiazol-5-yl)pyridin-2(1H)-one]	20
CC(C)(c1ccc(-c2noc(-c3ccc(=O)n(Cc4cccc(N5CCC(C#N)CC5)c4)c3)n2)cc1)C(F)(F)F [Example 11, 1-(3-{[2-oxo-5-{3-[4-(1,1,1-trifluoro-2-methylpropan-2-yl)phenyl]-1,2,4-oxadiazol-5-yl}pyridin-1(2H)-yl]methyl}phenyl)piperidine-4-carbonitrile]	2
N#CC1CCN(c2cccc(Cn3cc(-c4nc(-c5ccc(OC(F)(F)F)cc5)no4)ccc3=O)c2)CC1 [Example 9, 1-(3-{[2-oxo-5-{3-[4-(trifluoromethoxy)phenyl]-1,2,4-oxadiazol-5-yl}pyridin-1(2H)-yl]methyl}phenyl)piperidine-4-carbonitrile]	1.5
CNc1ccc(Cn2nc(-c3nc(-c4ccc(OC(F)(F)F)cc4)no3)ccc2=O)cn1 [Example 100, 2-{[6-(Methylamino)pyridin-3-yl]methyl}-6-{3-[4-(trifluoromethoxy)phenyl]-1,2,4-oxadiazol-5-yl}pyridazin-3(2H)-one]	6
CN1CCN(C(=O)c2cccc(Cn3nc(-c4nc(-c5ccc(C(C)(C)C(F)(F)F)cc5)no4)ccc3=O)c2)CC1 [Example 86, 2-{3-[(4-Methylpiperazin-1-yl)carbonyl]benzyl}-6-{3-[4-(1,1,1-trifluoro-2-methylpropan-2-yl)phenyl]-1,2,4-oxadiazol-5-yl}pyridazin-3(2H)-one]	40
O=c1ccc(-c2nc(-c3ccc(C4(C(F)(F)F)CC4)cc3)no2)cn1Cc1ccnc(N2CCN(C3CC3)CC2)c1 [Example 54, 1-{[2-(4-Cyclopropylpiperazin-1-yl)pyridin-4-yl]methyl}-5-(3-{4-[1-(trifluoromethyl)cyclopropyl]phenyl}-1,2,4-oxadiazol-5-yl)pyridin-2(1H)-one]	4
CN1CCN(c2cc(Cn3cc(-c4nc(-c5ccc(C6(C(F)(F)F)CC6)cc5)no4)ccc3=O)ccn2)CC1 [Example 48, 1-{[2-(4-Methylpiperazin-1-yl)pyridin-4-yl]methyl}-5-(3-{4-[1-(trifluoromethyl)cyclopropyl]phenyl}-1,2,4-oxadiazol-5-yl)pyridin-2(1H)-one]	50
CC(C)(c1ccc(-c2noc(-c3ccc(=O)n(Cc4ccnc(N5CCN(C6CC6)CC5)c4)n3)n2)cc1)C(F)(F)F [Example 97, 2-{[2-(4-Cyclopropylpiperazin-1-yl)pyridin-4-yl]methyl}-6-{3-[4-(1,1,1-trifluoro-2-methylpropan-2-yl)phenyl]-1,2,4-oxadiazol-5-yl}pyridazin-3(2H)-one]	3
O=c1ccc(-c2nc(-c3ccc(SC(F)(F)F)cc3)no2)cn1Cc1ccnc(N2CCN(C3CC3)CC2)c1 [Example 52, 1-{[2-(4-Cyclopropylpiperazin-1-yl)pyridin-4-yl]methyl}-5-(3-{4-[(trifluoromethyl)sulphanyl]phenyl}-1,2,4-oxadiazol-5-yl)pyridin-2(1H)-one]	5
O=C(c1cccc(Cn2cc(-c3nc(-c4ccc(OC(F)(F)F)cc4)no3)ccc2=O)c1)N1CCC(O)CC1 [Example 32, 1-{3-[(4-Hydroxypiperidin-1-yl)carbonyl]benzyl}-5-{3-[4-(trifluoromethoxy)phenyl]-1,2,4-oxadiazol-5-yl}pyridin-2(1H)-one]	2
O=c1ccc(-c2nc(-c3ccc(OC(F)(F)F)cc3)no2)cn1Cc1cccc(N2CC(O)C2)c1 [Example 13, 1-[3-(3-Hydroxyazetidin-1-yl)benzyl]-5-{3-[4-(trifluoromethoxy)phenyl]-1,2,4-oxadiazol-5-yl}pyridin-2(1H)-one]	2
CC(C)(c1ccc(-c2noc(-c3ccc(=O)n(Cc4cccc(C5(CO)CC5)c4)n3)n2)cc1)C(F)(F)F [Example 93, 2-{3-[1-(Hydroxymethyl)cyclopropyl]benzyl}-6-{3-[4-(1,1,1-trifluoro-2-methylpropan-2-yl)phenyl]-1,2,4-oxadiazol-5-yl}pyridazin-3(2H)-one]	25
CC(C)(c1ccc(-c2noc(-c3ccc(=O)n(Cc4cccc(C(=O)N5CCC5)c4)c3)n2)cc1)C(F)(F)F [Example 25, 1-[3-(Azetidin-1-ylcarbonyl)benzyl]-5-{3-[4-(1,1,1-trifluoro-2-methylpropan-2-yl)phenyl]-1,2,4-oxadiazol-5-yl}pyridin-2(1H)-one]	5

More lines, in order of falling IC50, values ahead:

IC50 [nM]	Structure (SMILES)
50	CC(C)(c1ccc(-c2noc(-c3ccc(=O)n(Cc4cccc(C(=O)NCCCO)c4)n3)n2)cc1)C(F)(F)F [Example 73, N-(3-Hydroxypropyl)-3-{[6-oxo-3-{3-[4-(1,1,1-trifluoro-2-methylpropan-2-yl)phenyl]-1,2,4-oxadiazol-5-yl}pyridazin-1(6H)-yl]methyl}benzamide]
40	CC(C)(c1ccc(-c2noc(-c3ccc(=O)n(Cc4ccnc(N5CCC(C#N)CC5)c4)n3)n2)cc1)C(F)(F)F [Example 95, 1-(4-{[6-oxo-3-{3-[4-(1,1,1-trifluoro-2-methylpropan-2-yl)phenyl]-1,2,4-oxadiazol-5-yl}pyridazin-1(6H)-yl]methyl}pyridin-2-yl)piperidine-4-carbonitrile]
40	CC(C)(O)Cc1cccc(Cn2nc(-c3nc(-c4ccc(C(C)(C)C(F)(F)F)cc4)no3)ccc2=O)c1 [Example 91, 2-[3-(2-Hydroxy-2-methylpropyl)benzyl]-6-{3-[4-(1,1,1-trifluoro-2-methylpropan-2-yl)phenyl]-1,2,4-oxadiazol-5-yl}pyridazin-3(2H)-one]
30	O=c1ccc(-c2nc(-c3ccc(OC(F)(F)F)cc3)no2)cn1Cc1ccc(NCCCO)nc1 [Example 63, 1-({6-[(3-Hydroxypropyl)amino]pyridin-3-yl}methyl)-5-{3-[4-(trifluoromethoxy)phenyl]-1,2,4-oxadiazol-5-yl}pyridin-2(1H)-one]
30	COC(=O)c1cccc(Cn2cc(-c3nc(-c4ccc(C(C)(C)C(F)(F)F)cc4)no3)ccc2=O)c1 [Example 19, Methyl 3-{[2-oxo-5-{3-[4-(1,1,1-trifluoro-2-methylpropan-2-yl)phenyl]-1,2,4-oxadiazol-5-yl}pyridin-1(2H)-yl]methyl}benzoate]
20	O=C(c1cccc(Cn2nc(-c3nc(-c4ccc(OC(F)(F)F)cc4)no3)ccc2=O)c1)N1CCOCC1 [Example 84, 2-[3-(Morpholin-4-ylcarbonyl)benzyl]-6-{3-[4-(trifluoromethoxy)phenyl]-1,2,4-oxadiazol-5-yl}pyridazin-3(2H)-one]
15	O=C(c1cccc(Cn2nc(-c3nc(-c4ccc(OC(F)(F)F)cc4)no3)ccc2=O)c1)N1CCC(O)CC1 [Example 82, 2-{3-[(4-Hydroxypiperidin-1-yl)carbonyl]benzyl}-6-{3-[4-(trifluoromethoxy)phenyl]-1,2,4-oxadiazol-5-yl}pyridazin-3(2H)-one]
5	O=C(c1cccc(Cn2nc(-c3nc(-c4ccc(OC(F)(F)F)cc4)no3)ccc2=O)c1)N1CCCC1 [Example 78, 2-[3-(Pyrrolidin-1-ylcarbonyl)benzyl]-6-{3-[4-(trifluoromethoxy)phenyl]-1,2,4-oxadiazol-5-yl}pyridazin-3(2H)-one]
2	O=C(c1cccc(Cn2cc(-c3nc(-c4ccc(OC(F)(F)F)cc4)no3)ccc2=O)c1)N1CCCC1 [Example 28, 1-[3-(Pyrrolidin-1-ylcarbonyl)benzyl]-5-{3-[4-(trifluoromethoxy)phenyl]-1,2,4-oxadiazol-5-yl}pyridin-2(1H)-one]
1	CC(C)(c1ccc(-c2noc(-c3ccc(=O)n(Cc4cccc(C(=O)N5CC(O)C5)c4)c3)n2)cc1)C(F)(F)F [Example 27, 1-{3-[(3-Hydroxyazetidin-1-yl)carbonyl]benzyl}-5-{3-[4-(1,1,1-trifluoro-2-methylpropan-2-yl)phenyl]-1,2,4-oxadiazol-5-yl}pyridin-2(1H)-one]
